Measured values reported in patent publication US8916565B2, “Pyrrolopyrazine-spirocyclic piperidine amides as modulators of ion channels” (priority 2011, dated 2014).
pIC50: −log10 of the molar value.

Biological target: human NaV subtype, like NaV 1.7 (Homo sapiens, UniProt Q15858)
Assay: E-VIPR optical membrane potential assay with electrical stimulation
Type: cell-based
Settings: active against one or more sodium channels; Table 3 does not name the assay or NaV subtype; read-out: Binned Activity Data (IC50)
From the text: Assays for Detecting and Measuring NaV Inhibition Properties of Compound E-VIPR Optical Membrane Potential Assay Method with Electrical Stimulation
Sodium channels are voltage-dependent proteins that can be activated by inducing membrane voltage changes by applying electric fields. The electrical stimulation instrument and methods of use are described in Ion Channel Assay Methods PCT/US01/21652, herein incorporated by reference and are referred to as E-VIPR. The instrument comprises a microtiter plate handler, an optical system for exciting the coumarin dye while simultaneously recording the coumarin and oxonol emissions, a waveform generator, a current- or voltage-controlled amplifier, and a device for inserting electrodes in well. Under integrated computer control, this instrument passes user-programmed electrical stimulus protocols to cells within the wells of the microtiter plate.
24 hours before the assay on E-VIPR, HEK cells expressing human NaV subtype, like NaV 1.7, are seeded in 384-well poly-lysine coated plates at 15,000-20,000 cells per well. Other subtypes are performed in an analogous mode in a cell line expressing the NaV of interest. HEK cells are grown in media (exact composition is specific to each cell type and NaV subtype) supplemented with 10% FBS (Fetal Bovine Serum, qualified; GibcoBRL #16140-071) and 1% Pen-Strep (Penicillin-Streptomycin; GibcoBRL #15140-122). Cells are grown in vented cap flasks, in 90% humidity and 10% CO2, to 100% confluence. They are usually split by trypsinization 1:10 or 1:20, depending on scheduling needs, and grown for 2-3 days before the next split.
Bath 1 buffer. Glucose 10 mM (1.8 g/L), Magnesium Chloride (Anhydrous), 1 mM (0.095 g/L), Calcium Chloride, 2 mM (0.222 g/L), HEPES 10 mM (2.38 g/L), Potassium Chloride, 4.5 mM (0.335 g/L), Sodium Chloride 160 mM (9.35 g/L).
Hexyl Dye Solution: Bath 1 Buffer+0.5% β-cyclodextrin (make this prior to use, Sigma #C4767), 8 μM CC2-DMPE+2.5 μM DiSBAC6(3). To make the solution Add volume of 10% Pluronic F127 stock equal to volumes of CC2-DMPE+DiSBAC6(3). The order of preparation is first mix Pluronic and CC2-DMPE, then add DiSBAC6(3) while vortexing, then add Bath 1+β-Cyclodextrin.
1) Pre-spot compounds (in neat DMSO) into compound plates. Vehicle control (neat DMSO), the positive control (20 mM DMSO stock tetracaine, 125 μM final in assay) and test compounds are added to each well at 160× desired final concentration in neat DMSO. Final compound plate volume will be 80 μL (80-fold intermediate dilution from 1 μL DMSO spot; 160-fold final dilution after transfer to cell plate). Final DMSO concentration for all wells in assay is 0.625%.
2) Prepare Hexyl Dye Solution.
3) Prepare cell plates. On the day of the assay, medium is aspirated and cells are washed three times with 100 μL of Bath 1 Solution, maintaining 25 μL residual volume in each well.
4) Dispense 25 μL per well of Hexyl Dye Solution into cell plates. Incubate for 20-35 minutes at room temp or ambient conditions.
5) Dispense 80 μL per well of Bath 1 into compound plates. Acid Yellow-17 (1 mM) is added and Potassium Chloride can be altered from 4.5 to 20 mM depending on the NaV subtype and assay sensitivity.
6) Wash cell plates three times with 100 μL per well of Bath1, leaving 25 μL of residual volume. Then transfer 25 uL per well from Compound Plates to Cell Plates. Incubate for 20-35 minutes at room temp/ambient condition
7) Read Plate on E-VIPR. Use the current-controlled amplifier to deliver stimulation wave pulses for typically 9 seconds and a scan rate of 400 Hz. A pre-stimulus recording is performed for 0.5 seconds to obtain the un-stimulated intensities baseline. The stimulatory waveform is applied for 9 seconds followed by 0.5 seconds of post-stimulation recording to examine the relaxation to the resting state.

Chain of human NaV subtype, like NaV 1.7 (Q15858 whole entry): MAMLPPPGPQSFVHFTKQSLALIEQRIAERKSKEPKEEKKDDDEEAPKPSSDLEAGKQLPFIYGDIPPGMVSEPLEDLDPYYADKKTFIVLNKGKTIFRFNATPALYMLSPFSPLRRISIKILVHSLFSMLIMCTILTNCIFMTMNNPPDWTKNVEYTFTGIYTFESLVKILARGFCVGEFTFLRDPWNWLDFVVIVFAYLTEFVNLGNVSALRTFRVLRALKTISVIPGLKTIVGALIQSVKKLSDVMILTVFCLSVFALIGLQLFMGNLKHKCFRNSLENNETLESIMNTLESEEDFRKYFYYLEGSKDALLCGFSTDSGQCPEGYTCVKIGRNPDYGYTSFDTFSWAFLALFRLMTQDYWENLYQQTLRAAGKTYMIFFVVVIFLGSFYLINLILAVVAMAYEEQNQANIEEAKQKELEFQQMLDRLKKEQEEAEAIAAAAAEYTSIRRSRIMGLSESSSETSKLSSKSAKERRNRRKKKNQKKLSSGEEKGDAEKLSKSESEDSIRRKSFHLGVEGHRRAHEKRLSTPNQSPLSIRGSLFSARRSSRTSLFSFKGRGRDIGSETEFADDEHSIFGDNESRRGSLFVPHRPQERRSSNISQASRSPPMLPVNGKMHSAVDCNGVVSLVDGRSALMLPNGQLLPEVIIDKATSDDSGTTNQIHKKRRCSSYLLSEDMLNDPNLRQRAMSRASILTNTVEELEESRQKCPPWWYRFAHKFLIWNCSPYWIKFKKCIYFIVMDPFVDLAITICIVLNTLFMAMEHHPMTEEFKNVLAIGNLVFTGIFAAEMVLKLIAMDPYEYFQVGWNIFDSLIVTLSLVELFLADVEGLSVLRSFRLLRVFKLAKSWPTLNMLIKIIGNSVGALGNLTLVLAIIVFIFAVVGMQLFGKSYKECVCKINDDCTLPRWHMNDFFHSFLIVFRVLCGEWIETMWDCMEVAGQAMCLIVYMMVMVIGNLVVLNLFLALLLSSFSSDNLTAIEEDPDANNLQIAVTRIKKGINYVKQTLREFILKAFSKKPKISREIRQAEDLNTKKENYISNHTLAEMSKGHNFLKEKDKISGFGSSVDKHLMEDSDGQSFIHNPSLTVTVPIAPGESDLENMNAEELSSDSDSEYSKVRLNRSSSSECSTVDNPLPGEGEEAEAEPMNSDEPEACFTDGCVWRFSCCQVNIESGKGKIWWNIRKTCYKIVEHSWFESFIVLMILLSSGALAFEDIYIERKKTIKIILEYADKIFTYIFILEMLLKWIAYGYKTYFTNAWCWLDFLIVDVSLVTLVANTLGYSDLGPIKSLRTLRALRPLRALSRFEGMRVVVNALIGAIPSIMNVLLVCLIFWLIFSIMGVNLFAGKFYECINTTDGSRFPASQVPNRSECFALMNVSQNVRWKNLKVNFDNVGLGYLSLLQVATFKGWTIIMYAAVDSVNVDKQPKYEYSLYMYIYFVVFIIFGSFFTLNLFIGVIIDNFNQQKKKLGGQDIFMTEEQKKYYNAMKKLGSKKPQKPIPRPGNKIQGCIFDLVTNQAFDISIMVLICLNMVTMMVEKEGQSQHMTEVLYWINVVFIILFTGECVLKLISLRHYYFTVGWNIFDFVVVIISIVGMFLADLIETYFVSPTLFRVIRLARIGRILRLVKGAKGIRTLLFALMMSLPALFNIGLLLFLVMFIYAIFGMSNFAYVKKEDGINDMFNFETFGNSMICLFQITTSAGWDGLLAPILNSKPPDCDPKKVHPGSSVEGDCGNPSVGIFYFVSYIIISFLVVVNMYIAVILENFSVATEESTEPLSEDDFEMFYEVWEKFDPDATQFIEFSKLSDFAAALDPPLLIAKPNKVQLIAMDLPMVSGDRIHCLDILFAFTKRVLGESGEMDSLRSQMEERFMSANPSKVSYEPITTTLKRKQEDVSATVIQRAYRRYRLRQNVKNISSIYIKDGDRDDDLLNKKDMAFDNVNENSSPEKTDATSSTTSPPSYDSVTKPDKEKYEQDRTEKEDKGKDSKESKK

| pIC50 | Compound |
| --- | --- |
| 5.30 to 5.70 | CN1CCn2c(C(=O)C3CC3)ccc2C12CCN(C(=O)c1ccc(O)c(Cl)c1)CC2 [Compound 31] |
| ≥ 5.70 | CN1CCn2c(Cl)ccc2C12CCN(C(=O)c1ccc(OCC(C)(C)C)cc1)CC2 [Compound 32] |
| ≥ 5.70 | CCCCOc1ccc(C(=O)N2CCC3(CC2)c2ccc(C(C)=O)n2CCN3C)cc1 [Compound 34] |
| < 5.30 | COCC#Cc1ccc(C(=O)N2CCC3(CC2)c2ccc(Cl)n2CCN3C)cc1F [Compound 36] |
| 5.30 to 5.70 | CC[C@H](C)Oc1ccc(C(=O)N2CCC3(CC2)c2ccc(Cl)n2CCN3C)cc1OC [Compound 38] |
| ≥ 5.70 | CC(C)Oc1ccc(C(=O)N2CCC3(CC2)c2ccc(C(=O)C(F)(F)F)n2CCN3C)cc1F [Compound 40] |
| < 5.30 | COc1cccc(C(=O)N2CCC3(CC2)c2ccc(C(F)(F)F)n2CCN3C)c1 [Compound 42] |
| ≥ 5.70 | COc1cc(C(=O)N2CCC3(CC2)c2cc(C(F)(F)F)c(C(F)(F)F)n2CCN3C)ccc1OC(C)C [Compound 48] |
| ≥ 5.70 | CC(C)c1cc(C(=O)N2CCC3(CC2)c2ccc(C(=O)C(F)(F)F)n2CCN3C)ccc1O [Compound 50] |
| ≥ 5.70 | CC(C)Oc1ccc(C(=O)N2CCC3(CC2)c2ccc(C(=O)C(F)(F)F)n2CCN3C)cc1C#N [Compound 51] |
| ≥ 5.70 | COc1cc(C(=O)N2CCC3(CC2)c2ccc(C(C)=O)n2CCN3C)ccc1C(C)(C)C [Compound 56] |
| ≥ 5.70 | COc1ccc(C(=O)N2CCC3(CC2)c2ccc(C(=O)C(C)(C)C)n2CCN3C)cc1Cl [Compound 58] |
| ≥ 5.70 | COc1cc(C(=O)N2CCC3(CC2)c2ccc(C(F)(F)F)n2CCN3CC(F)(F)F)ccc1OC(C)C [Compound 59] |
| ≥ 5.70 | CCCCOc1ccc(C(=O)N2CCC3(CC2)c2ccc(Cl)n2CCN3C)cc1OC [Compound 65] |
| 5.30 to 5.70 | CN1CCn2c(Cl)ccc2C12CCN(C(=O)c1ccc(OCc3ccccc3)cc1)CC2 [Compound 68] |
| ≥ 5.70 | CC(C)Oc1ccc(C(=O)N2CCC3(CC2)c2ccc(C(=O)C4CC4)n2CCN3C)cc1C(F)(F)F [Compound 69] |
| ≥ 5.70 | Cc1cc(C(=O)N2CCC3(CC2)c2ccc(C(=O)C4CC4)n2CCN3C)ccc1OC(C)C [Compound 70] |
| 5.30 to 5.70 | CC(C)Cc1ccc(C(=O)N2CCC3(CC2)c2ccc(Cl)n2CCN3C)cc1 [Compound 73] |
| 5.30 to 5.70 | COc1ccc(C(=O)N2CCC3(CC2)c2ccc(C(=O)c4ccccc4)n2CCN3C)cc1Cl [Compound 74] |
| ≥ 5.70 | CCc1ccc(C(=O)N2CCC3(CC2)c2ccc(C(F)(F)F)n2CCN3CCOC)cc1OC [Compound 80] |
| ≥ 5.70 | COc1cc(C(=O)N2CCC3(CC2)c2ccc(Cl)n2CCN3C)ccc1OCC(C)C [Compound 82] |
| ≥ 5.70 | COc1cc(C(=O)N2CCC3(CC2)c2ccc(C(=O)C(C)(C)C)n2CCN3C)ccc1OC(C)(C)C [Compound 85] |
| < 5.30 | CCOc1ccc(C(=O)N2CCC3(CC2)c2ccc(Cl)n2CCN3C)cc1OCC [Compound 86] |
| 5.30 to 5.70 | COc1cc(C(=O)N2CC[C@@]3(c4ccc(C(F)(F)F)n4CCN3C)[C@H](F)C2)ccc1OC(C)C [Compound 88] |
| ≥ 5.70 | COc1cc(C(=O)N2CCC3(CC2)c2ccc(C(=O)C(F)(F)F)n2CCN3C)ccc1OC(C)(C)C [Compound 90] |

Continued, compound first:

| Compound | pIC50 |
| --- | --- |
| CN1CCn2c(C(=O)C(F)(F)F)ccc2C12CCN(C(=O)c1ccc(S(=O)(=O)NC3CC3)cc1)CC2 [Compound 33] | ≥ 5.70 |
| CC(C)Oc1ccc(C(=O)N2CCC3(CC2)NC(C)(C)Cn2c(C(F)(F)F)ccc23)cc1Cl [Compound 37] | ≥ 5.70 |
| Cc1cc(C(=O)N2CCC3(CC2)c2cccn2CCN3Cc2ccccc2)ccc1OC(C)C [Compound 39] | ≥ 5.70 |
| CC1(C)Cn2c(C(=O)C(F)(F)F)ccc2C2(CCN(C(=O)c3ccc(COCC(F)(F)F)cc3)CC2)N1 [Compound 41] | ≥ 5.70 |
| O=C(c1ccccc1Oc1ccccc1)N1CCC2(CC1)NCCn1c(C(F)(F)F)ccc12 [Compound 43] | < 5.30 |
| CC(C)CNc1ncccc1C(=O)N1CCC2(CC1)c1ccc(C(F)(F)F)n1CCN2C [Compound 44] | 5.30 to 5.70 |
| CN1CCn2c(C(=O)C(F)(F)F)ccc2C12CCN(C(=O)c1ccc(OCC3CC3)c(F)c1)CC2 [Compound 46] | ≥ 5.70 |
| CN1CCn2c(C(=O)C(F)(F)F)ccc2C12CCN(C(=O)c1ccc(OCC3CC3)cc1)CC2 [Compound 47] | ≥ 5.70 |
| CN1CCn2c(C(F)(F)F)ccc2C12CCN(C(=O)c1ccnc3ccccc13)CC2 [Compound 49] | ≥ 5.70 |
| CC(C)Oc1ccc(C(=O)N2CCC3(CC2)c2cc(C(=O)C(F)(F)F)cn2C(C)(C)CN3C)c(F)c1 [Compound 52] | < 5.30 |
| CN1CCn2c(C(=O)C3(C)CC3)ccc2C12CCN(C(=O)c1ccc(S(=O)(=O)NC3CC3)cc1)CC2 [Compound 53] | ≥ 5.70 |
| CCC(C)(C)c1ccc(C(=O)N2CCC3(CC2)c2ccc(C(=O)C(F)(F)F)n2CCN3C)cc1 [Compound 54] | 5.30 to 5.70 |
| Cc1cc(C(=O)N2CCC3(CC2)c2ccc(C(=O)C(F)(F)F)n2CCN3C)ccc1-c1ccccc1 [Compound 55] | ≥ 5.70 |
| CC(C)Oc1ccc(C(=O)N2CCC3(CC2)N[C@H](C)Cn2c(C(F)(F)F)ccc23)cc1F [Compound 57] | ≥ 5.70 |
| COc1ccc(C(=O)N2CCC3(CC2)c2ccc(C(=O)C(F)(F)F)n2C[C@@H](C)N3C)cc1C(F)(F)F [Compound 61] | 5.30 to 5.70 |
| CCCCCc1ccc(C(=O)N2CCC3(CC2)c2ccc(C(=O)C(F)(F)F)n2CCN3C)cc1 [Compound 62] | ≥ 5.70 |

| Compound | pIC50 |
| --- | --- |
| Cc1cccc(C(=O)N2CCC3(CC2)c2ccc(C(F)(F)F)n2CCN3C)n1 [Compound 63] | < 5.30 |
| CCOc1ccc(C(=O)N2CCC3(CC2)c2ccc(C(=O)C(F)(F)F)n2CCN3C)cc1C(F)(F)F [Compound 64] | ≥ 5.70 |
| CN1CCn2c(C(=O)C3CC3)ccc2C12CCN(C(=O)c1ccc(C3CCCCC3)cc1)CC2 [Compound 66] | ≥ 5.70 |
| CCC(C)(C)c1ccc(C(=O)N2CCC3(CC2)c2ccc(C(C)=O)n2CCN3C)cc1 [Compound 67] | < 5.30 |
| CN1CCn2c(C(=O)C(F)(F)F)ccc2C12CCN(C(=O)c1ccc(Cc3ccccc3)cc1)CC2 [Compound 71] | ≥ 5.70 |
| CN1CCn2c(C(=O)C(F)(F)F)ccc2C12CCN(C(=O)c1ccc(C(O)COCC(F)(F)F)cc1)CC2 (centres unmarked) [Compound 72] | ≥ 5.70 |
| CN1CCn2c(C(F)(F)F)cc(Cl)c2C12CCN(C(=O)c1ccc(COCC(F)(F)F)cc1)CC2 [Compound 75] | ≥ 5.70 |
| CC1(C)CNC2(CCN(C(=O)c3ccc(S(=O)(=O)NC4CC4)cc3)CC2)c2ccc(C(F)(F)F)n21 [Compound 76] | < 5.30 |
| CC(C)Oc1ccc(C(=O)N2CCC3(CC2)NCC(C)(C)n2c(C(F)(F)F)ccc23)cc1Cl [Compound 77] | ≥ 5.70 |
| CC(=O)c1ccc2n1CCN(C)C21CCN(C(=O)c2ccc(Oc3ccccc3)cc2)CC1 [Compound 78] | 5.30 to 5.70 |
| CC(C)CCOc1ccc(C(=O)N2CCC3(CC2)NC(C)(C)Cn2cc(F)c(F)c23)cc1 [Compound 79] | < 5.30 |
| COc1cc(C(=O)N2CCC3(CC2)NCCn2c(C(F)(F)F)ccc23)ccc1C(C)(C)O [Compound 83] | ≥ 5.70 |
| CN1CCn2c(C(F)(F)F)ccc2C12CCN(C(=O)c1ccc(C(C)(C)O)cc1)CC2 [Compound 84] | ≥ 5.70 |
| CCCc1ccc(C(=O)N2CCC3(CC2)c2ccc(C(=O)C(F)(F)F)n2CCN3C)cc1 [Compound 87] | ≥ 5.70 |
| CC(C)Oc1ccc(C(=O)N2CCC3(CC2)c2ccc(C(=O)C(C)(C)C)n2CCN3C)c(F)c1 [Compound 91] | ≥ 5.70 |
